Experimental findings from patent US20080045537A1, “Chemical Compounds” (priority 2004, published 2008) are described below.

Format in all cases: cell-based
Data set [1] has as its system HIV-1 IIIB (T-tropic, CXCR4 utilizing). The experiment in a line: HOS HIV-1 infectivity assay. A digest of the protocol:
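HOS cells expressing hCXCR4/hCCR5/hCD4 with an HIV-LTR-luciferase reporter were seeded in DMEM with 2% FCS and cultured 24 h at 37 °C. Compound was added 1 h before virus (~2 million RLU/well), then incubated 96 h. Infection was read by Steady-Glo luciferase; viability of uninfected cultures by CellTiter-Glo.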

Data set [2] has as its target T1, human CXCR4 (Homo sapiens, UniProt P61073).
T1 construct: expressed in transfected cells; host or cells: HEK-293 cells (stably expressing human macrophage scavenging receptor) transduced with human CXCR4 BacMam and Gqi5 BacMam baculoviruses
Put plainly: Functional FLIPR assay (block of SDF-1 alpha induced [Ca2+]i change). The settings on record: HEK-293 cells with human CXCR4 BacMam and Gqi5 BacMam; antagonism of SDF-1 alpha; read-out: Functional assay (pIC50) (converted). Here is the method:
Human embryonic kidney (HEK-293) cells were maintained and harvested as described above. Cells were plated in 96-well, black clear bottom, poly-lysine coated plates at a concentration of 40,000 cells per well in a final volume of 100 ul containing human CXCR4BacMam (MOI=25) and Gqi5 BacMam (MOI=12.5). The cells were incubated at 37° C., 5% CO2, 95% humidity for 24 h to allow for protein expression.
After the required incubation time the cells were washed once with 50 ul of fresh serum-free DMEM/F12 media containing probenicid. 50 ul of dye solution was then added to the cells (Calcium Plus Assay Kit Dye; Molecular Devices) was dissolved in 200 ml of the above probenicid/BSA containing media and incubated for 1 h. Cell plates were transferred to a Fluorometric Imaging Plate Reader (FLIPR). Upon addition the effect of the compounds on the change in [Ca^2+]i was examined to determine if the compounds were agonists or antagonists (ability to block SDF-1 alpha activity) at the CXCR4 receptor. IC50 values are determined and pKb values are calculated using the Leff and Dougall equation: KB=IC50/((2+([agonist]/EC50ˆb)ˆ1/b−1) Where IC50 is that defined by the antagonist concentration-response curve [agonist] is the EC80 concentration of agonist used EC50 is that defined by the agonist concentration-response curve b is the slope of the agonist concentration-response curve.

Data set [3] relates to HIV-1 gp160 (from the HXB2 HIV strain). Put plainly: Cell/cell fusion assay (HEK-293 expressing HIV-1 tat, rev, gp160 with HOS hCXCR4/hCCR5/hCD4/pHIV-LTR-luciferase cells). The settings on record: Human immunodeficiency virus 1, HXB2, HEK293, 24 h, read-out: Fusion assay (pIC50), luciferase readout after 24 h (converted). The text has this:
The complete coding sequences of HIV-1 tat (GenBank Accession No. X07861) and rev (GenBank Accession No. M34378) were cloned into pcDNA3.1 expression vectors containing G418 and hygromycin resistance genes, respectively. The complete coding sequence of the HIV-1 (HXB2 strain) gp160 envelope gene (nucleotide bases 6225-8795 of GenBank Accession No. K03455) was cloned into plasmid pCRII-TOPO. The three HIV genes were additionally inserted into the baculovirus shuttle vector, pFastBacMam1, under the transcriptional control of the CMV promoter. A construction of the pHIV-I LTR containing mutated NFkB sequences linked to the luciferase reporter gene was prepared by digesting pcDNA3.1, containing the G418 resistance gene, with Nru I and Bam HI to remove the CMV promoter. LTR-luc was then cloned into the Nru I/Bam HI sites of the plasmid vector. Plasmid preparations were performed after the plasmids were amplified in Escherichia coli strain DH5-alpha. The fidelity of the inserted sequences was confirmed by double-strand nucleotide sequencing using an ABI Prism Model 377 automated sequencer.
Recombinant BacMam baculoviruses were constructed from pFastBacMam shuttle plasmids by using the bacterial cell-based Bac-to-Bac system. Viruses were propagated in Sf9 (Spodoptera frugiperda) cells cultured in Hink's TNM-FH Insect media supplemented with 10% (v/v) fetal bovine serum and 0.1% (v/v) pluronic F-68 according to established protocols.
Human osteosarcoma (HOS) cells that naturally express human CXCR4 were transfected with human CCR5, human CD4 and the pHIV-LTR-luciferase plasmid using FuGENE 6 transfection reagent. Single cells were isolated and grown under selection condition in order to generate a stable HOS (hCXCR4/hCCR5/hCD4/pHIV-LTR-luciferase) clonal cell line. The cells were maintained in Dulbeccos modified Eagles media supplemented with 10% fetal calf serum (FCS), G418 (400 ug/ml), puromycin (1 ug/ml), mycophenolic acid (40 ug/ml), xanthine (250 ug/ml) and hypoxanthine (13.5 ug/ml) to maintain a selection pressure for cells expressing the LTR-luciferase, hCCR5 and hCD4, respectively. Human embryonic kidney (HEK-293) cells stably transfected to express the human macrophage scavenging receptor (Class A, type 1; GenBank Accession No. D90187), were maintained in DMEM/F-12 media (1:1) supplemented with 10% FCS and 1.5 ug/ml puromycin. The expression of this receptor by the HEK-293 cells enhances their ability to stick to tissue culture treated plasticware.
HEK-293 cells were harvested using enzyme-free cell dissociation buffer. The cells were resuspended in DMEM/F-12 media supplemented with 10% FCS and 1.5 ug/ml and counted. Tranductions were performed by direct addition of BacMam baculovirus containing insect cell media to cells. The cells were simultaneously transduced with BacMam baculovirus expressing HIV-1 tat, HIV-1 rev and HIV-1 gp160 (from the HXB2 HIV strain). Routinely an MOI of 10 of each virus was added to the media containing the cells. 2 mM butyric acid was also added to the cells at this stage to increase protein expression in transduced cells. The cells were subsequently mixed and seeded into a flask at 30 million cells per T225. The cells were incubated at 37° C., 5% CO2, 95% humidity for 24 h to allow for protein expression.
HEK and HOS cells were harvested in DMEM/F-12 media containing 2% FCS and DMEM media containing 2% FCS, respectively, with no selection agents added. Compounds were plated as 1 ul spots in 100% DMSO on a 96-well CulturPlate plates. HOS cells (50 ul) were added first to the wells, followed immediately by the HEK cells (50 ul). The final concentration of each cell type was 20,000 cells per well. Following these additions, the cells were returned to a tissue culture incubator (37° C.; 5% CO2/95% air) for an additional 24 h.
Following the 24 h incubation, total cellular luciferase activity was measured using the LucLite Plus assay kit (Packard, Meridien, Conn.). […]

Data set [4] is described as follows: Compound cytotoxicity in the absence of virus addition (CellTiter-Glo). The settings on record: human; non-infected HOS cultures; read-out: Cytotox (pIC50) (converted). Here is the method: Compounds were profiled against two HIV-1 viruses, the M-tropic (CCR5 utilizing) Ba-L strain and the T-tropic (CXCR4 utilizing) IIIB strain. Both viruses were propagated in human peripheral blood lymphocytes. Compounds were tested for there ability to block infection of the HOS cell line (expressing hCXCR4/hCCR5/hCD4/pHIV-LTR-luciferase) by either HIV-1 Ba-L or HIV-1 IIIB. Compound cytotoxicity was also examined in the absence of virus addition.
HOS cells (expressing hCXCR4/hCCR5/hCD4/pHIV-LTR-luciferase) were harvested and diluted in Dulbeccos modified Eagles media supplemented with 2% FCS and non-essential amino acid to a concentration of 60,000 cells/ml. The cells were plated into 96-well plates (100 ul per well) and the plates were placed in a tissue culture incubator (37° C.; 5% CO2/95% air) for a period of 24 h.
Subsequently, 50 ul of the desired drug solution (4 times the final concentration) was added to each well and the plates were returned to the tissue culture incubator (37° C.; 5% CO2/95% air) for 1 h. Following this incubation 50 ul of diluted virus was added to each well (approximately 2 million RLU per well of virus). The plates were returned to the tissue culture incubator (37° C.; 5% CO2/95% air) and were incubated for a further 96 h.
Following this incubation the endpoint for the virally infected cultures was quantified following addition of Steady-Glo Luciferase assay system reagent (Promega, Madison, Wis.). Cell viability or non-infected cultures was measured using a CellTiter-Glo luminescent cell viability assay system (Promega, Madison, Wis.). All luminescent readouts are performed on a Topcount luminescence detector (Packard, Meridien, Conn.).
(In general: Cellular ATP, detected with luciferase, serves as a proxy for viable cell number.)

Where [5] appears, read: Human immunodeficiency virus 1, IIIB, as determined by the infectivity assay, strain not stated in Table 2, read-out: Activity Level.
The mark [6] stands for this setting: Human immunodeficiency virus 1, HIV-1 IIIB, HOS cells, 96 h, luciferase readout, read-out: HOS (3B).

Each structure is given as a SMILES string. Like-named read-outs stand apart in the source and are kept apart here. A value given as a limit tells only on which side of the number the result lay.

T1 sequence (P61073 whole entry): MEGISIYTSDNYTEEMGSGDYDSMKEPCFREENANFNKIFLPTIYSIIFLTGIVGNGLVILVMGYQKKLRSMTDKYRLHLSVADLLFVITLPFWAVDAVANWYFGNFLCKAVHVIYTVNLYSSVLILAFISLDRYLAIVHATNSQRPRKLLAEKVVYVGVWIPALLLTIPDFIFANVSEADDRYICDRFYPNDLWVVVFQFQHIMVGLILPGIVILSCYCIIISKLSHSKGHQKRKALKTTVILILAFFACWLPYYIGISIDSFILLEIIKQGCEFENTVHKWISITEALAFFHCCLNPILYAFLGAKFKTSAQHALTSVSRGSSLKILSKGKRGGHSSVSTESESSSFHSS

As to `CN(Cc1nc2c(C(=O)NCCc3cn(C)cn3)cccc2[nH]1)C1CCCc2cccnc21` (stereo not drawn) [Example 24, N-[2-(1-Methyl-1H-imidazol-4-yl)ethyl]-2-{[methyl(5,6,7,8-tetrahydro-8-quinolinyl)amino]methyl}-1H-benzimidazole-4-carboxamide], the IC50 is under 100 nM in data set [1] (setting [5]), 22 nM in data set [1] (setting [6]), 12.3 nM in data set [2] and 145 nM in data set [3]. Besides, the IC50 at 96 h in data set [4] is over 100000 nM.
The matching figures for `CN(Cc1nc2cccc(C(=O)NCCCCN)c2[nH]1)C1CCCc2cccnc21` (stereo not drawn) [Example 11, N-(4-Aminobutyl)-2-{[methyl(5,6,7,8-tetrahydro-8-quinolinyl)amino]methyl}-1H-benzimidazole-4-carboxamide]: 100 to 500 nM, 395 nM, 257 nM, 741 nM and over 100000 nM.
`CCN(Cc1nc2cc(C(=O)NCCN)ccc2[nH]1)C1CCCc2cccnc21` (stereo not drawn) [Example 14, N-(2-Aminoethyl)-2-{[ethyl(5,6,7,8-tetrahydro-8-quinolinyl)amino]methyl}-1H-benzimidazole-5-carboxamide]: the IC50 was 100 to 500 nM in data set [1] (setting [5]), 440 nM in data set [1] (setting [6]), 339 nM in data set [2] and 2570 nM in data set [3]. Further, in data set [4], the IC50 at 96 h was over 100000 nM.
On to `CN(Cc1nc2c(C(=O)NCCN)cccc2[nH]1)C1CCCc2cccnc21` (stereo not drawn) [Example 26, N-(2-Aminoethyl)-2-{[methyl(5,6,7,8-tetrahydro-8-quinolinyl)amino]methyl}-1H-benzimidazole-4-carboxamide], for which the IC50 is under 100 nM in data set [1] (setting [5]), 27 nM in data set [1] (setting [6]), 20.9 nM in data set [2] and 49 nM in data set [3]. In addition, the IC50 at 96 h in data set [4] was over 100000 nM.
Consider `CN(Cc1nc2c(C(=O)N3CCNCC3)cccc2n1C)C1CCCc2cccnc21` (stereo not drawn) [Example 10, N-Methyl-N-{[1-methyl-4-(1-piperazinylcarbonyl)-1H-benzimidazol-2-yl]methyl}-5,6,7,8-tetrahydro-8-quinolinamine], for which the IC50 was 500 to 10000 nM in data set [1] (setting [5]), 840 nM in data set [1] (setting [6]), 1410 nM in data set [2] and 1910 nM in data set [3]. Further, the IC50 at 96 h in data set [4] is over 100000 nM.
As for `CN(Cc1nc2c(C(=O)N3CCC(N)CC3)cccc2[nH]1)C1CCCc2cccnc21` (stereo not drawn) [Example 30, N-({4-[(4-Amino-1-piperidinyl)carbonyl]-1H-benzimidazol-2-yl}methyl)-N-methyl-5,6,7,8-tetrahydro-8-quinolinamine], the IC50 is 75 nM in data set [1] (setting [6]); under 100 nM in data set [1] (as determined by the infectivity assay, strain not stated in Table 2, read-out: Activity Level); 2000 nM in data set [2]; 407 nM in data set [3]. Besides, in data set [4], the IC50 at 96 h was over 100000 nM.
In the case of `CCN(Cc1nc2cc(C(=O)NCCCN)ccc2[nH]1)C1CCCc2cccnc21` (stereo not drawn) [Example 13, N-(3-Aminopropyl)-2-{[ethyl(5,6,7,8-tetrahydro-8-quinolinyl)amino]methyl}-1H-benzimidazole-5-carboxamide], the IC50 is 500 to 10000 nM in data set [1] (setting [5]), 594 nM in data set [1] (setting [6]), 417 nM in data set [2] and 1740 nM in data set [3]. Besides, in data set [4], the IC50 at 96 h was over 100000 nM.
On the same counts, the results for `CN(Cc1nc2cc(C(=O)NCc3ccc(CN)cc3)ccc2[nH]1)C1CCCc2cccnc21` (stereo not drawn) [Example 20, N-{[4-(Aminomethyl)phenyl]methyl}-2-{[methyl(5,6,7,8-tetrahydro-8-quinolinyl)amino]methyl}-1H-benzimidazole-5-carboxamide] are 500 to 10000 nM, 2350 nM, over 100000 nM, 5620 nM and over 100000 nM.
On the same counts, the results for `CN(Cc1nc2c(C(N)=O)cccc2[nH]1)C1CCCc2cccnc21` (stereo not drawn) [Example 25, 2-{[Methyl(5,6,7,8-tetrahydro-8-quinolinyl)amino]methyl}-1H-benzimidazole-4-carboxamide] are 100 to 500 nM, 143 nM, 174 nM, 275 nM and over 100000 nM.
